EC50 data for 47 compounds are collected here from patent US20250230141A1, “Substituted Fused Bicyclic Compounds and Related Methods of Treatment” (Alkermes, Inc., priority 2022, published 2025).

This assay concerns the target T1, human orexin-2 receptor (OX2R) (Homo sapiens, UniProt O43614).
T1 construct: expressed in transfected cells
T1 sequence (O43614 1-444): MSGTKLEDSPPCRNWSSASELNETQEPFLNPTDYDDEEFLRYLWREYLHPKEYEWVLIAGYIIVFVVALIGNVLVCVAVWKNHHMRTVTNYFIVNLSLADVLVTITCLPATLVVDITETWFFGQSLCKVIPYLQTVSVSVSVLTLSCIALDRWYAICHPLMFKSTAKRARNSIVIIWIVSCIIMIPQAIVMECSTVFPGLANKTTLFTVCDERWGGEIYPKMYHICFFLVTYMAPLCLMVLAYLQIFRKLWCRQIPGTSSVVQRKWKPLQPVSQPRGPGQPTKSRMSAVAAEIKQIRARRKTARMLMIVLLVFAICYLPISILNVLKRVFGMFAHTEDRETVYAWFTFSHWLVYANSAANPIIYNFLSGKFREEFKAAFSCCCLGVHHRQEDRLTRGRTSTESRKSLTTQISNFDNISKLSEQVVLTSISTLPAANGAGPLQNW
Nature of the assay: Human OX2R IP1 assay. To be noted: T-Rex CHO cells stably overexpressing human OX2R; IP1 accumulation, 1 hr at 37 degrees C; mean EC50. It counts as cell-based. Here is the method: T-Rex CHO cells stably overexpressing the human orexin-2 receptor (OX2R) were induced overnight with 1 μg/mL of doxycycline in a T225 flask. 24 hours post induction, cells were lifted with accutase and plated into a 384-well proxy plate at 30,000 cells/well. Cells were then treated with different test compounds in 1× stimulation buffer containing 10 mM Hepes, 1 mM CaCl2, 0.5 mM MgCl2, 4.2 mM KCl, 146 mM NaCl, 5.5 mM glucose, and 50 mM LiCl, pH 7.4, for 1 hr at 37 degrees C. Following incubation, the reaction was terminated by the addition of detection mix, which is composed of IP1-d2 and anti-IP1-cryptate diluted in lysis buffer as well as 1× stimulation buffer. The plates were allowed to incubate for 1 hour at room temperature and were then read in the EnVision® multimode plate reader, measuring inositol phosphate levels.
Cisbio IP1 is a cell-based functional assay quantifying the accumulation of inositol monophosphate (IP), a metabolite released as a result of orexin 2 receptor activation through the phospholipase C-Gq signaling pathway. This is a competitive immunoassay in which the IP1 produced by the cells upon receptor activation competes with the IP1 analog coupled to the d2 fluorophore (acceptor) for binding to an anti-IP1 monoclonal antibody labeled with Eu cryptate (donor). The measured HTRF-FRET based signal is inversely proportional to the IP1 concentration produced.
The EC50 values reported in Table 2 were obtained according to the human OX2R IP1 assay described above. Data are the mean EC50 values±S.E.M.
With `CS(=O)(=O)N[C@H]1CCN(c2ccccn2)C[C@H]1CO[C@H]1CC[C@@H](c2ccc3[nH]ncc3c2)CC1` [Compound 1], the concentration giving a half-maximal response (EC50) (commonly the midpoint of the concentration-response curve) was < 1 nM.

`O=S(=O)(N[C@H]1CCN(c2ccccn2)C[C@H]1CO[C@H]1CC[C@@H](c2ccc3[nH]ncc3c2)CC1)C(F)(F)F` [Compound 2] returned a concentration giving a half-maximal response (EC50) of 1 to 10 nM.

In the case of `Cn1ncc2cc([C@H]3CC[C@@H](OC[C@@H]4CN(c5ccccn5)CC[C@@H]4NS(C)(=O)=O)CC3)ccc21` [Compound 3], the half-maximal effective concentration (EC50) was < 1 nM.

`CS(=O)(=O)N[C@H]1CCN(C(=O)C2(F)CCC2)C[C@H]1CO[C@H]1CC[C@@H](c2ccc3[nH]ncc3c2)CC1` [Compound 4] registered an EC50 of 1 to 10 nM.

The compound `COC(=O)N1CC[C@H](NS(C)(=O)=O)[C@H](CO[C@H]2CC[C@@H](c3ccc4[nH]ncc4c3)CC2)C1` [Compound 5] registered a half-maximal effective concentration (EC50) of 1 to 10 nM.

As for `Cn1ncc2cc([C@H]3CC[C@@H](OC[C@@H]4CN(c5ccccn5)CC[C@@H]4NS(C)(=O)=O)CC3)ncc21` [Compound 7], the concentration giving a half-maximal response (EC50) is > 10 nM.

In the case of `Cn1cnc2cc([C@H]3CC[C@@H](OC[C@@H]4CN(c5ccccn5)CC[C@@H]4NS(C)(=O)=O)CC3)ccc21` [Compound 8], the EC50 lay within 1 to 10 nM.

Regarding `Cn1cnc2ccc([C@H]3CC[C@@H](OC[C@@H]4CN(c5ccccn5)CC[C@@H]4NS(C)(=O)=O)CC3)cc21` [Compound 9], the EC50 was 1 to 10 nM.

On to `Cn1ncc2cc([C@H]3CC[C@@H](OC[C@@H]4CN(c5ccccn5)CC[C@@H]4NS(=O)(=O)C(F)(F)F)CC3)ccc21` [Compound 10], for which the EC50 is < 1 nM.

On to `Cn1ncc2cc([C@H]3CC[C@@H](OC[C@@H]4CN(C(=O)C5(F)CCC5)CC[C@@H]4NS(C)(=O)=O)CC3)ccc21` [Compound 11], for which the concentration giving a half-maximal response (EC50) is < 1 nM.

`COC(=O)N1CC[C@H](NS(C)(=O)=O)[C@H](CO[C@H]2CC[C@@H](c3ccc4c(cnn4C)c3)CC2)C1` [Compound 12]: the EC50 is 1 to 10 nM.

Turning to `Cn1ncc2cc([C@H]3CC[C@@H](OC[C@@H]4CN(c5cccnn5)CC[C@@H]4NS(=O)(=O)C(F)(F)F)CC3)ccc21` [Compound 13], the concentration for a half-maximal effect (EC50) was < 1 nM.

`Cn1ncc2cc([C@H]3CC[C@@H](OC[C@@H]4CN(C(=O)C5(F)CCC5)CC[C@@H]4NS(=O)(=O)C(F)(F)F)CC3)ccc21` [Compound 14] came in with an EC50 of 1 to 10 nM.

`Cn1ncc2cc([C@H]3CC[C@@H](OC[C@@H]4CN(c5cccnn5)CC[C@@H]4NS(C)(=O)=O)CC3)ccc21` [Compound 15] registered a half-maximal effective concentration (EC50) of 1 to 10 nM.

Take `Cn1cnc2cc([C@H]3CC[C@@H](OC[C@@H]4CN(C(=O)C5(F)CCC5)CC[C@@H]4NS(C)(=O)=O)CC3)ccc21` [Compound 16]: the 50% effective concentration (EC50) is < 1 nM.

As for `Cn1ncc2cc([C@H]3CC[C@@H](OC[C@@H]4CN(C(=O)[C@@H]5CCOC5)CC[C@@H]4NS(C)(=O)=O)CC3)ccc21` [Compound 17], the EC50 was in the range of 1 to 10 nM.

Take `Cn1ncc2cc([C@H]3CC[C@@H](OC[C@@H]4CN(C(=O)C5CC5)CC[C@@H]4NS(C)(=O)=O)CC3)ccc21` [Compound 18]: the EC50 is 1 to 10 nM.

On to `Cn1cnc2ccc([C@H]3CC[C@@H](OC[C@@H]4CN(C(=O)C5(F)CCC5)CC[C@@H]4NS(C)(=O)=O)CC3)cc21` [Compound 19], for which the half-maximal effective concentration (EC50) is 1 to 10 nM.

Take `CC(=O)N1CC[C@H](NS(C)(=O)=O)[C@H](CO[C@H]2CC[C@@H](c3ccc4c(cnn4C)c3)CC2)C1` [Compound 20]: the 50% effective concentration (EC50) was > 10 nM.

Compound `Cn1ncc2cc([C@H]3CC[C@@H](OC[C@@H]4CN(C(=O)C(C)(C)O)CC[C@@H]4NS(C)(=O)=O)CC3)ccc21` [Compound 21] had an EC50 of 1 to 10 nM.

Consider `Cn1ncc2cc([C@H]3CC[C@@H](OC[C@@H]4CN(C(=O)C(C)(C)C)CC[C@@H]4NS(C)(=O)=O)CC3)ccc21` [Compound 22], for which the 50% effective concentration (EC50) was 1 to 10 nM.

In turn, `Cn1ncc2cc([C@H]3CC[C@@H](OC[C@@H]4CN(C(=O)N5CCC5)CC[C@@H]4NS(C)(=O)=O)CC3)ccc21` [Compound 23] registered an EC50 of 1 to 10 nM.

For `Cn1ncc2cc([C@H]3CC[C@@H](OC[C@@H]4CN(c5cnccn5)CC[C@@H]4NS(=O)(=O)C(F)(F)F)CC3)ccc21` [Compound 25], the concentration for a half-maximal effect (EC50) was in the range of 1 to 10 nM.

Turning to `Cn1ncc2cc([C@H]3CC[C@@H](OC[C@@H]4CN(c5cccnn5)CC[C@@H]4NS(=O)(=O)C(F)(F)F)CC3)cc(F)c21` [Compound 26], the EC50 fell in the range of 1 to 10 nM.

Compound `Cn1ncc2cc([C@H]3CC[C@@H](OC[C@@H]4CN(C(=O)c5cncs5)CC[C@@H]4NS(C)(=O)=O)CC3)ccc21` [Compound 27] gave a half-maximal effective concentration (EC50) of 1 to 10 nM.

Turning to `Cn1ncc2cc([C@H]3CC[C@@H](OC[C@@H]4CN(C(=O)[C@@]5(C)CCOC5)CC[C@@H]4NS(C)(=O)=O)CC3)ccc21` [Compound 28], the 50% effective concentration (EC50) lay within 1 to 10 nM.

Regarding `CNS(=O)(=O)N[C@H]1CCN(c2cccnn2)C[C@H]1CO[C@H]1CC[C@@H](c2ccc3c(cnn3C)c2)CC1` [Compound 29], the EC50 was < 1 nM.

For `CN(C)S(=O)(=O)N[C@H]1CCN(c2cccnn2)C[C@H]1CO[C@H]1CC[C@@H](c2ccc3c(cnn3C)c2)CC1` [Compound 30], the EC50 was < 1 nM.

In turn, `CN(C)S(=O)(=O)N[C@H]1CCN(C(=O)[C@@H]2CCOC2)C[C@H]1CO[C@H]1CC[C@@H](c2ccc3c(cnn3C)c2)CC1` [Compound 31] had a concentration giving a half-maximal response (EC50) of 1 to 10 nM.

With `Cn1ncc2cc([C@H]3CC[C@@H](OC[C@@H]4CN(C(=O)C5CCOC5)CC[C@@H]4NS(=O)(=O)C(F)(F)F)CC3)ccc21` (some centres unmarked) [Compound 33], the EC50 is 1 to 10 nM.

With `Cn1ncc2cc([C@H]3CC[C@@H](OC[C@@H]4CN(C(=O)CN5CCOCC5)CC[C@@H]4NS(C)(=O)=O)CC3)ccc21` [Compound 45], the EC50 was > 10 nM.

On to `Cn1ncc2cc([C@H]3CC[C@@H](OC[C@@H]4CN(C(=O)CN5CCCCC5)CC[C@@H]4NS(C)(=O)=O)CC3)ccc21` [Compound 46], for which the EC50 was > 10 nM.

With `Cn1ncc2cc([C@H]3CC[C@@H](OC[C@@H]4CN(C(=O)C5COC5)CC[C@@H]4NS(C)(=O)=O)CC3)ccc21` [Compound 47], the concentration for a half-maximal effect (EC50) was > 10 nM.

As to `Cn1ncc2cc([C@H]3CC[C@@H](OC[C@@H]4CN(C(=O)CO)CC[C@@H]4NS(C)(=O)=O)CC3)ccc21` [Compound 48], the EC50 is > 10 nM.

For the compound `Cn1ccnc1CC(=O)N1CC[C@H](NS(C)(=O)=O)[C@H](CO[C@H]2CC[C@@H](c3ccc4c(cnn4C)c3)CC2)C1` [Compound 49], the 50% effective concentration (EC50) was > 10 nM.

For the compound `Cn1ncc2cc([C@H]3CC[C@@H](OC[C@@H]4CN(C(=O)Cc5ncccn5)CC[C@@H]4NS(C)(=O)=O)CC3)ccc21` [Compound 50], the concentration giving a half-maximal response (EC50) was > 10 nM.

Take `Cn1ncc2cc([C@H]3CC[C@@H](OC[C@@H]4CN(C(=O)Cc5cnccn5)CC[C@@H]4NS(C)(=O)=O)CC3)ccc21` [Compound 51]: the half-maximal effective concentration (EC50) is > 10 nM.

As to `Cn1ncc2cc([C@H]3CC[C@@H](OC[C@@H]4CN(C(=O)Cc5ccncn5)CC[C@@H]4NS(C)(=O)=O)CC3)ccc21` [Compound 52], the EC50 was > 10 nM.

For the compound `Cn1ncc2cc([C@H]3CC[C@@H](OC[C@@H]4CN(C(=O)C5CCO5)CC[C@@H]4NS(C)(=O)=O)CC3)ccc21` (some centres unmarked) [Compound 53], the 50% effective concentration (EC50) is > 10 nM.

Take `CN(C)C(=O)N[C@H]1CCN(c2cccnn2)C[C@H]1CO[C@H]1CC[C@@H](c2ccc3c(cnn3C)c2)CC1` [Compound 58]: the 50% effective concentration (EC50) was > 10 nM.

For the compound `Cn1ncc2cc([C@H]3CC[C@@H](OC[C@@H]4CN(C(=O)C5CCOC5)CC[C@@H]4NS(C)(=O)=O)CC3)ccc21` (some centres unmarked) [Compound 59], the concentration giving a half-maximal response (EC50) is 1 to 10 nM.

Turning to `Cn1ncc2cc([C@H]3CC[C@@H](OC[C@@H]4CN(C(=O)C5CCOC5)CC[C@@H]4NS(C)(=O)=O)CC3)ccc21` (some centres unmarked) [Compound 60], the EC50 is > 10 nM.

As to `Cn1ncc2cc([C@H]3CC[C@@H](OC[C@@H]4CN(CC(=O)N5CCCCC5)CC[C@@H]4NS(C)(=O)=O)CC3)ccc21` [Compound 61], the EC50 was > 10 nM.

Turning to `Cn1ncc2cc([C@H]3CC[C@@H](OC[C@@H]4CN(C(=O)[C@H]5CCOC5)CC[C@@H]4NS(C)(=O)=O)CC3)ccc21` [Compound 62], the EC50 is > 10 nM.

For the compound `Cn1cnc2ccc(C3CCC(OC[C@@H]4CN(c5ccccn5)CC[C@@H]4NS(C)(=O)=O)CC3)cc21` (some centres unmarked) [Compound 63], the concentration giving a half-maximal response (EC50) was > 10 nM.

Compound `Cn1cnc2ccc([C@H]3CC[C@H](OC[C@@H]4CN(c5ccccn5)CC[C@@H]4NS(C)(=O)=O)CC3)cc21` [Compound 64] came in with an EC50 of 1 to 10 nM.

With `Cn1ncc2ccc([C@H]3CC[C@H](OC[C@@H]4CN(c5ccccn5)CC[C@@H]4NS(C)(=O)=O)CC3)cc21` [Compound 65], the 50% effective concentration (EC50) was > 10 nM.
